The record followed here is US20200046788A1, “COMPOSITIONS AND METHODS FOR TREATMENT OF INTESTINAL INFLAMMATION AND COLON CANCER” (University of Louisville Research Foundation, Inc., priority 2016, published 2020).

Assay [1] deals with human monocyte-derived DCs. The settings on record: LPS 100 ng/ml, western blot. The procedure:
Western blot analysis. […] Images have been cropped for presentation.
(§1) Generation of mouse and human DCs. For the generation of mouse DCs, bone marrow cells were harvested from the femurs and tibias of mice and cultured in 6-well tissue culture plates (Costar) for 8 days in complete medium supplemented with 20 ng/ml GM-CSF and 10 ng/ml IL-4. BDNs, BDN-derived lipid or SFN was added to some wells on day 0. To obtain human DCs, peripheral blood mononuclear cells were isolated from healthy donors by Ficoll-Hypaque Plus (GE Healthcare). These studies were approved by the Institutional Review Board of University of Louisville. Monocytes were purified by a discontinuous Percoll gradient (GE Healthcare) and positive selection with the Monocyte Isolation kit (purity, >90%; Miltenyi Biotec). Monocytes were cultured in RPMI-1640 complete medium supplemented with 10% (vol/vol) heat-inactivated PCS, gentamicin ([…]), 2-mercaptoethanol (50 μM) and L-glutamine (2 mM; all from Gibco) containing IL-4 (5 ng/ml; Sigma) and recombinant human GM-CSF (35 ng/ml; Sigma) with or without SFN (10 μM). In some experiments, DCs were exposed for 24 h to LPS (100 ng/ml) with or without SFN.

In the next assay the test system is DSS-induced colitis. As to the kind of experiment: Transfer of BMDCs treated with LN SFN knock-out / knock-in nanoparticles into mice with DSS colitis. Type of assay: in vivo, mouse. As to the method: FIGS. 7A-7F include graphs and images showing that BDN SFN protects colitis by inducing regulatory DCs, including graphs and images showing: (FIG. 7A) the lipids extracted from BDN-derived liposome-like nanoparticles (LN) or LN with SFN knock-out (LN-SFN^−/− or knock-in (LN-SFN^+/+) and a standard SFN were separated on a thin-layer chromatography plate and developed, where a representative image was scanned using an Odyssey Scanner; (FIGS. 7B-7D) BMDCs that were treated with CBA (20 μg/ml) for 24-48 hr in the presence of DMSO, LN-SFN^−/− or LN-SFN^+/+ and were injected i.v. […] (FIG. 7E) cytokine analysis by qRT-PCR of RNA recovered from colonic LPL1; and (FIG. 7F) the cell number of CD11b^+ DCs isolated from colon and MLN in DSS-induced colitis after adoptive transfer, where data are mean±SEM. (n=5), *P<0.05, **P<0.01 (Student's t-test). Lipid extraction, TLC and lipidomic analysis. Total lipid extraction from BDNs was performed according to the method of Bligh and Dyer, and the lipids were dissolved in chloroform or methanol for analysis. […] Developed plates were initially air-dried, then sprayed with CuSO4-phosphoric acid reagent (10% CuSO4 in 8% phosphoric acid), and followed by charring at 100° C. for 10 min. […] Total lipids were determined using the phosphate assay as described previously. […] Colitis was assessed as described above.

The subject of the next assay is MC38 colon cancer cells. As to the kind of experiment: MC38 colon cancer cells treated with SFN or BDN-derived lipids (RT-PCR). Type of assay: cell-based, mouse. The procedure: RNA extraction and PCR. Total RNA was isolated from the small intestine and colon or tumor tissue using the Qiagen RNeasy RNA isolation Kit and was used to synthesize cDNA. RNA (1 μg) was reverse-transcribed with Superscript III and random primers (Invitrogen). For quantitation of genes of interest, cDNA samples were amplified in a CFX96 Realtime System (Bio-Rad Laboratories, Hercules, Calif., USA) using SYBR Green Master Mix (Invitrogen) and specific primers (Table 2) according to the manufacturer's instructions. Fold changes in mRNA expression between treatments and controls were determined by the […] as described. Results for each sample were normalized to the concentration of GAPDH mRNA measured in the same samples and expressed as fold increase over baseline levels, which are set at a value of 1. Differences between groups were determined using a two-sided Student's t-test and one-way ANOVA. Error bars on plots represent±SEM, unless otherwise noted. All primers were purchased from Eurofins MWG Operon.

For a further assay, the system named is BMDCs. As to the method:
as §1

Another assay concerns CD4+ T cells. As to the method:
as §1

In another assay the test system is intestinal tumorigenesis. As to the method:
Polyamine pools and Enzyme analyses. Tumor tissue was removed from intestine and was snap-frozen and stored at −70° C. Following removal of tumors, the normal small intestinal and colonic mucosa was scraped with a glass slide and snap-frozen. Frozen tissues were crushed into a fine powder. Specimens were homogenized in 1.2N perchloric acid and centrifuged to obtain the soluble supernatant extracts for polyamine analyses. Intracellular polyamine pools and acetylated polyamine pools were extracted with 1.2N perchloric acid, dansylated with dansyl chloride. The derivatized polyamines were separated on and analyzed using high-performance liquid chromatography on 150×4.6 mm ZORBAX SB-C18 column (Agilent) using methods described elsewhere. Polyamines were also quantitated by ELISA kit (Mybiosource, # MBS094198). For analysis of the enzyme activity, intestinal mucosal samples (4 mm^2) were immediately transferred to vials containing 0.5 ml of an ice-cold buffer [50 mM Tris-HCl (pH 7.5), 0.1 mM EDTA, and 0.1 mM pyridoxal phosphate)] and then homogenized and centrifuged. SSAT and ODC activities were determined by using C-labeled substrates and scintillation counting of end products produced as described previously (31) (or Cancer research SSAT mice).

Where [2] appears, read: SFN 10 μM + GM-CSF vs GM-CSF alone.

With `C[S+]([O-])CCCCN=C=S` (stereo not drawn) [SFN, Sulforaphane], in assay [1], the “phosphorylation of AMPK at Thr172” value is given as “increased phosphorylation of AMPK at Thr172”; the “phosphorylation of S6 and p70S6K” value is listed as “decreased S6 phosphorylation”. In addition, the “numbers of transferred BMDC reaching the MLNs and colon” value in the assay with DSS-induced colitis is on record as “lower numbers”. Further, in the assay on MC38 colon cancer cells (RT-PCR, vs DMSO), the “expression of CSN8 and ODC” value is “inhibited”; the “expression of Nrf2 and SSAT1” value is reported as “strongly activated”. Besides, the “increase in SSAT1 caused by SFN” value in the assay on MC38 colon cancer cells (knockdown of both Nrf2 and CSN8) is listed as “significantly inhibited the increase”. Moreover, in the assay on BMDCs (LPS 18 h, vs LPS alone), the “IL-10 production (ELISA)” value is “more IL-10” and the “IL-12, IL-23 production (ELISA)” value is recorded as “produced less IL-12, IL-23”. Moreover, in the assay with BMDCs (setting [2]), the “expression of CD11c” value is “lower expression of CD11c” and the “expression of PD-L1” value was “higher expression of PD-L1”. For the same compound, in the assay on CD4+ T cells (vs DC^DMSO), the “CD25 on CD4+ T cells induced by DC^SFN” value was “lower expression” and the “PD-1 on CD4+ T cells induced by DC^SFN” value is recorded as “higher levels”. In the assay with CD4+ T cells (vs LPS-treated DC^DMSO), the “IFN-γ production by CD4+ T cells primed with LPS-DC^SFN” value was “less IFN-γ” and the “IL-10 production by CD4+ T cells primed with LPS-DC^SFN” value is given as “more IL-10”. The “IFN-γ production by CD4 T cells primed with DC^SFN” value in the assay on CD4+ T cells (without LPS, vs DC^DMSO) is given as “negligible production of IFN-γ”.

Turning to `NCCCCN` [putrescine], the “polyamines pool in the small intestine” value in the assay on intestinal tumorigenesis (1% in drinking water) was “large increase”. In the assay on intestinal tumorigenesis (APC^Min/+CSN8^fl/fl mice, vs control mice), the tumor number entry is listed as “an increase, but not statistically significant increase”. For the same compound, in the assay on intestinal tumorigenesis (APC^Min/+CSN8^ΔIEC), the “epithelial cell proliferation (Ki-67) in the small intestines” value is on record as “stimulated” and the “polyp numbers in the small intestines” value is given as “strikingly increased”. Besides, the “expression of nuclear Stat3, c-Myc and p21^(Cip1/WAF1)” value in the assay with intestinal tumorigenesis (APC^Min/+CSN8^ΔIEC mice, to that seen in APC^Min/+CSN8^fl/fl) is reported as “restored the expression”. Besides, in the assay on intestinal tumorigenesis (mouse, in vivo), the “polyp number in the colon” value is “no effect”.
